Earlier results, collected in patent publication US6907319B2, “System for the application of pesticides” (Syngenta Crop Protection, Inc., priority 2000, dated 2005).

Assays:
[1] = increasing the soil temperature
[2] = tested on: potato; details: cool temperatures (13° C. day/4° C. night) compared with 24° C./13° C.

| Structure (SMILES) | reduction of the maximum phytotoxicity threshold [1] | other results |
| --- | --- | --- |
| CCNc1nc(Cl)nc(NC(C)C)n1 [atrazine] | 3 fold | – |
| O=C(O)CNCP(=O)(O)O [glyphosate] | – | phytotoxicity of glyphosate/ha, less than at 24° C./13° C. [2]: 50% |
| Nc1c(Cl)c(Cl)nc(C(=O)O)c1Cl [picloram] | 1.5 fold | – |
| Cc1[nH]c(=O)n(C(C)(C)C)c(=O)c1Cl [terbacil] | 2.5 fold | – |
| COC(=O)c1sccc1S(=O)(=O)NC(=O)Nc1nc(C)nc(OC)n1 [thiameturon-methyl] | – | activity with increasing rain (increasing of rain): reduces the activity; performance with increasing temperature and humidity (increasing temperature and humidity): markedly improved |
